The results in this text go back to PubChem BioAssay AID624474 (Sanford-Burnham Center for Chemical Genomics, 2012).

In the assay the target is Protein skinhead-1 (Caenorhabditis elegans) (UniProt P34707). The experiment in a line: C. elegans SKN-1 blockade, concentration series – fluorescence ratio readout, dose response (AID 624474). The note with it: SKN-1 inhibitor fluorescence ratio assay.
Chain of Protein skinhead-1 (Caenorhabditis elegans) (P34707 whole entry, looked up): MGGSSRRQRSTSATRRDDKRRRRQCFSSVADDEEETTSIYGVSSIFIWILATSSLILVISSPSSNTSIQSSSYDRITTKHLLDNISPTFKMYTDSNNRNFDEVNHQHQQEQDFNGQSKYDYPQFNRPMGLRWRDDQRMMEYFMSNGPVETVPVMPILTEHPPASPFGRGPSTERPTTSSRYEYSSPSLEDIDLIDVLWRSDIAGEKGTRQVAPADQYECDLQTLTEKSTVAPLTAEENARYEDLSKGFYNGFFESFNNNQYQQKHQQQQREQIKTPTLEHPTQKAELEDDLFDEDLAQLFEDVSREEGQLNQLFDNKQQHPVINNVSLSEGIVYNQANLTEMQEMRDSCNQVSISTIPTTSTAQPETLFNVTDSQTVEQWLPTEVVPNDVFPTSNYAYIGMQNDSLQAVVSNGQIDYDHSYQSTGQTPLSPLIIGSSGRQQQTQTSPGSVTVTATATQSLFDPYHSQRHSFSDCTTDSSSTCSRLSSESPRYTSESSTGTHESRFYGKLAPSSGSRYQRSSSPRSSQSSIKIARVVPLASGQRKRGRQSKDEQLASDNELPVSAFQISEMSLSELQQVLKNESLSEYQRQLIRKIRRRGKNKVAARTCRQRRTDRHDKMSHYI
As to `O=C(/C=C/c1ccc(Br)cc1)c1ccc(NC2=NCCCS2)cc1`, the IC50 (usually the concentration that gives 50% inhibition) was 9.41 µM.

Consider `Brc1ccc(-c2nnc(-c3ccco3)o2)cc1`, for which the concentration for half-maximal inhibition (IC50) is 13.9 µM.

Regarding `COc1cc(CNC(C)(C)CO)cc(Br)c1OCc1ccc(Cl)cc1`, the IC50 was 19.5 µM.

For the compound `Clc1ccc(Cn2cc(Br)cn2)cc1Cl`, the half-inhibitory concentration (IC50) was 30.6 µM.
